# Test system: U87MG xenograft-bearing NOD/SCID mice
# Experiment: Ex vivo biodistribution in U87MG xenograft model
# Set-up: species or system mouse
# Details: single i.v. dose of atezolizumab 20 mg/kg, 24 h before [^18F]AlF-NOTA-PCP2
substance,measurement,value
"atezolizumab: anti-PD-L1 antibody used for blockade, 20 mg/kg",decrease in tracer uptake in U87MG tumors,92.2%

# Reference: paper PMC11964630 (Journal of Pharmaceutical Analysis, 2024)
